Measured values reported in paper PMC10526447 (Biomolecules, 2023).
pIC50, pKd: −log10 of the molar value. Like-named read-outs stand apart in the source and are kept apart here. Positions of bridges follow the written chain, without caps; N, C: chain ends. No end group written: not given here.

Assays:
SARS-CoV-2 PsV = conditions: 48 h
[1] = biological target: human immunoglobulin G (IgG) (human); test: BLI
[2] = biological target: SARS-CoV-2 HR1 peptide (SARS-CoV-2)
WIV1-CoV S protein = assay type: cell-based; conditions: read-out: IC50 against Cell-Cell Fusion Mediated by S Proteins of CoVs
HCoV-OC43 = assay type: in vivo, ICR mice (newborn)
SARS-CoV-2 HR1P = SARS-CoV-2 HR1P (Severe acute respiratory syndrome coronavirus 2, UniProt P0DTC2); assay type: physicochemical; conditions: pH 7.2
Pseudotyped WIV1-CoV = conditions: 48 h
Pseudotyped HCoV-OC43 = conditions: 48 h
Pseudotyped HCoV-229E = conditions: 48 h
Pseudotyped SARS-CoV-2 [3] = conditions: 48 h
live HCoV-OC43 = conditions: 8 h
live HCoV-229E = conditions: 8 h
SARS-CoV PsV = conditions: rhesus monkey, in vivo
[4] = in vivo; cited from earlier work
SARS-CoV S protein = SARS-CoV S protein (Severe acute respiratory syndrome coronavirus, UniProt P59594); test: cell-based
MERS-CoV S protein = MERS-CoV S protein (Middle East respiratory syndrome-related coronavirus, UniProt K9N5Q8); test: cell-based
SARS-CoV-2 S protein [5] = biological target: T1, SARS-CoV-2 S protein (Severe acute respiratory syndrome coronavirus 2, UniProt P0DTC2); test: cell-based; conditions: IC50 against Cell-Cell Fusion Mediated by S Proteins of CoVs
HCoV-OC43 S protein = HCoV-OC43 S protein (Human coronavirus OC43, UniProt P36334); test: cell-based
HCoV-NL63 S protein = HCoV-NL63 S protein (Human coronavirus NL63, UniProt Q6Q1S2); test: cell-based
HCoV-229E S protein = HCoV-229E S protein (Human coronavirus 229E, UniProt P15423); test: cell-based
SARS-CoV-2 S protein [6] = biological target: T1, SARS-CoV-2 S protein; test: cell-based
proteinase K = proteinase K (Parengyodontium album, UniProt P06873)
proteinase K, sequence (P06873 106-384): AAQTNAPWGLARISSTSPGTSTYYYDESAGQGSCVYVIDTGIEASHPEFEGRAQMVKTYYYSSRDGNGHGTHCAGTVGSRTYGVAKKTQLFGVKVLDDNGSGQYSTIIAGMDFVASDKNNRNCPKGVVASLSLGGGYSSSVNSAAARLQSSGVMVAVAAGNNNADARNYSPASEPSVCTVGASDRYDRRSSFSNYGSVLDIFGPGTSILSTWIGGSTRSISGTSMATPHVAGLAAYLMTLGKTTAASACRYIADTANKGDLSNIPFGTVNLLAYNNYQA

[7] = test system: Caco-2, Calu-3, RD and Huh-7 cells; conditions: 24 h
[8] = mouse, in vivo, 50 mg/kg
[9] = rhesus monkey, in vivo, iv, 10 mg/kg
[10] = test system: pseudotyped SARS-CoV-2 VOCs; conditions: 48 h
in vivo = conditions: rhesus monkey, iv, 10 mg/kg
in vitro = conditions: human, Caco-2, Calu-3, RD and Huh-7 cells
Pseudotyped SARS-CoV [11] = conditions: 48 h
Pseudotyped MERS-CoV [12] = conditions: 48 h
Pseudotyped SARS-CoV-2 [13] = conditions: 48 h; remark: listed apart in the source
Pseudotyped HCoV-NL63 [14] = conditions: 48 h
Pseudotyped SARS-CoV [15] = conditions: 48 h; remark: listed apart in the source
Pseudotyped MERS-CoV [16] = conditions: 48 h; remark: listed apart in the source
Pseudotyped HCoV-NL63 [17] = conditions: 48 h; remark: listed apart in the source

For “SLDQINVTFLDLEYEMKKLEEAIKKLEESYIDLKELDCAWHLGELVWCT (disulfide 38-48) [EK1-IBP]”, the pIC50 (SARS-CoV-2 PsV) was 5.93.

“human immunoglobulin G Fc-binding peptide (IBP)” showed a pKd [1] of 5.99.

Work on EK1 (peptide) yielded an IC50 against pseudotyped SARS-CoV-2 infection of Caco-2 cells [2] of 590 nM and an IC50 against pseudotyped SARS-CoV-2 infection of Calu-3 cells [2] of 253 nM.

Work on IBP-EK1 (peptide) yielded an IC50 against pseudotyped SARS-CoV-2 infection of Caco-2 cells [2] of 512 nM, an IC50 against pseudotyped SARS-CoV-2 infection of Calu-3 cells [2] of 180 nM and a pKd [1] of 6.66.

For `CC[C@H](C)[C@H](NC(=O)[C@H](C)NC(=O)[C@H](CCC(=O)O)NC(=O)[C@H](CCC(=O)O)NC(=O)[C@H](CC(C)C)NC(=O)[C@H](CCCCN)NC(=O)[C@H](CCCCN)NC(=O)[C@H](CCSC)NC(=O)[C@H](CCC(=O)O)NC(=O)[C@H](Cc1ccc(O)cc1)NC(=O)[C@H](CCC(=O)O)NC(=O)[C@H](CC(C)C)NC(=O)[C@H](CC(=O)O)NC(=O)[C@H](CC(C)C)NC(=O)[C@H](Cc1ccccc1)NC(=O)[C@@H](NC(=O)[C@@H](NC(=O)[C@H](CC(N)=O)NC(=O)[C@@H](NC(=O)[C@H](CCC(N)=O)NC(=O)[C@H](CC(=O)O)NC(=O)[C@H](CC(C)C)NC(=O)[C@@H](N)CO)[C@@H](C)CC)C(C)C)[C@@H](C)O)C(=O)N[C@@H](CCCCN)C(=O)N[C@@H](CCCCN)C(=O)N[C@@H](CC(C)C)C(=O)N[C@@H](CCC(=O)O)C(=O)N[C@@H](CCC(=O)O)C(=O)N[C@@H](CO)C(=O)N[C@@H](Cc1ccc(O)cc1)C(=O)N[C@H](C(=O)N[C@@H](CC(=O)O)C(=O)N[C@@H](CC(C)C)C(=O)N[C@@H](CCCCN)C(=O)N[C@@H](CCC(=O)O)C(=O)N[C@@H](CC(C)C)C(=O)O)[C@@H](C)CC` [EK1], the pIC50 (WIV1-CoV S protein) was 6.23, the “protection (survival), prophylactic” value (HCoV-OC43; 3-day-old suckling mice, 10 mg/kg intranasal single dose 1 h before HCoV-OC43 (100 TCID50) challenge) was 100% and the “viral loads in mouse brain, therapeutic group” value (HCoV-OC43; day 5 post challenge, 10 mg/kg intranasal 1 h after challenge, vs viral control) was “significantly different from those of viral control group”. The “viral loads in mouse brain, prophylactic group” value (HCoV-OC43; day 5 post challenge, 10 mg/kg intranasal 1 h before challenge, relative RNA quantification vs viral control) was “very low”, the “Tm of complex with SARS-CoV-2 HR1P” value (SARS-CoV-2 HR1P) was 51.05 °C and the pIC50 (Pseudotyped WIV1-CoV) was 5.16. The pIC50 (Pseudotyped HCoV-OC43) was 5.44, the pIC50 (Pseudotyped HCoV-229E) was 5.46 and the pIC50 (Pseudotyped SARS-CoV-2 [3]) was 6.60. For the same molecule, the pIC50 (live HCoV-OC43) was 6.12, the pIC50 (live HCoV-229E) was 5.12 and the pIC50 (SARS-CoV-2 PsV) was 6.10. For the same molecule, the “ex vivo inhibition of SARS-CoV PsV by serum (fold of its IC50)” value (SARS-CoV PsV; iv, 10 mg/kg) was “below 450 fold”, the t1/2 (SARS-CoV PsV; iv, 10 mg/kg) was 1.77 h and the “t1/2 (reported value)” value [4] was 1.8 h.

With “DCAWHLGELVWCTSLDQINVTFLDLEYEMKKLEEAIKKLEESYIDLKEL (disulfide 2-12) [IBP-EK1]” the pIC50 (SARS-CoV S protein) was 6.64, the pIC50 (MERS-CoV S protein) was 6.42 and the pIC50 (SARS-CoV-2 S protein [5]) was 6.29. For the same molecule, the pIC50 (HCoV-OC43 S protein) was 6.08, the pIC50 (HCoV-NL63 S protein) was 6.67 and the pIC50 (HCoV-229E S protein) was 6.32. The pIC50 (SARS-CoV-2 S protein [6]) was 6.49, the pIC50 (Pseudotyped WIV1-CoV) was 5.22 and the pIC50 (Pseudotyped HCoV-OC43) was 5.45. For the same molecule, the pIC50 (Pseudotyped HCoV-229E) was 5.48, the pIC50 (Pseudotyped SARS-CoV-2 [3]) was 6.74 and the pIC50 (live HCoV-OC43) was 6.13. For the same molecule, the pIC50 (live HCoV-229E) was 5.38, the pIC50 (SARS-CoV-2 PsV) was 6.10 and the “residual inhibitory activity against SARS-CoV-2 PsV after trypsin treatment” value (trypsin) was “significantly better inhibitory activities than those of EK1”. For the same molecule, the “residual inhibitory activity against SARS-CoV-2 PsV after proteinase K treatment” value (proteinase K) was “significantly better inhibitory activities than those of EK1”, the “selectivity index (SI = CC50/IC50)” value [7] was “more than 100” and the “ALT level in sera” value [8] was “in the normal range”. For the same molecule, the “IBP-EK1-specific antibodies in sera (immunogenicity)” value [8] was “no IBP-EK1-specific antibodies were detected”, the body weight changes [8] was “weight changes similar to those of the PBS-treated group” and the “creatinine level in sera” value [8] was “in the normal range”. The “histopathology of lungs, livers and kidneys (H&E)” value [8] was “no pathological abnormalities in their organs”, the AUC [9] was 2207.03 µg·h/mL and the “half-life relative to that of EK1” value (SARS-CoV PsV) was “about 21 fold”. It also gave an AUC (SARS-CoV PsV; iv, 10 mg/kg) of 5228.98 µg·h/mL, a Cmax (SARS-CoV PsV; iv, 10 mg/kg) of 116.09 µg/mL and a Tmax (SARS-CoV PsV; iv, 10 mg/kg) of 2 h. For the same molecule, the t1/2 (SARS-CoV PsV; iv, 10 mg/kg) was 39.72 h, the pIC50 [10] was 6.53 to 6.77 and the Cmax (in vivo) was 51.7 µg/mL. For the same molecule, the Tmax (in vivo) was 2 h, the half-life (in vivo) was 2260 min and the level at 24 h (in vivo) was about 24000 ng/mL. The CC50 at 48 h (in vitro) was over 100 µM.

`CC(C)C[C@@H]1NC(=O)[C@H](Cc2c[nH]cn2)NC(=O)[C@H](Cc2c[nH]c3ccccc23)NC(=O)[C@H](C)NC(=O)[C@@H](NC(=O)[C@@H](N)CC(=O)O)CSSC[C@@H](C(=O)N[C@H](C(=O)O)[C@@H](C)O)NC(=O)[C@H](Cc2c[nH]c3ccccc23)NC(=O)[C@H](C(C)C)NC(=O)[C@H](CC(C)C)NC(=O)[C@H](CCC(=O)O)NC(=O)CNC1=O` [IBP] showed a pIC50 (SARS-CoV S protein) of under 4.30, a pIC50 (MERS-CoV S protein) of under 4.30 and a pIC50 (SARS-CoV-2 S protein [5]) of under 4.00. It also gave a pIC50 (HCoV-OC43 S protein) of under 4.30, a pIC50 (HCoV-NL63 S protein) of under 4.30 and a pIC50 (HCoV-229E S protein) of under 4.30. For the same molecule, the pIC50 (Pseudotyped SARS-CoV [11]) was under 4.30, the pIC50 (Pseudotyped MERS-CoV [12]) was under 4.30 and the pIC50 (Pseudotyped SARS-CoV-2 [13]) was under 4.30. It also gave a pIC50 (Pseudotyped WIV1-CoV) of under 4.30, a pIC50 (Pseudotyped HCoV-OC43) of under 4.30 and a pIC50 (Pseudotyped HCoV-NL63 [14]) of under 4.30. For the same molecule, the pIC50 (Pseudotyped HCoV-229E) was under 4.30, the pIC50 (Pseudotyped SARS-CoV [15]) was under 4.30 and the pIC50 (Pseudotyped MERS-CoV [16]) was under 4.30. For the same molecule, the pIC50 (Pseudotyped SARS-CoV-2 [3]) was under 4.30, the pIC50 (Pseudotyped HCoV-NL63 [17]) was under 4.30 and the pIC50 (live HCoV-OC43) was under 4.30. It also gave a pIC50 (live HCoV-229E) of under 4.30 and a pIC50 (SARS-CoV-2 PsV) of under 4.00.

In the case of “SLDQINVTFLDLEYEMKKLEEAIKKLEESYIDLKELGGSDCAWHLGELVWCT (disulfide 41-51) [EK1-L-IBP]”, the pIC50 (SARS-CoV-2 PsV) was 5.93.

In the case of “DCAWHLGELVWCTGGSSLDQINVTFLDLEYEMKKLEEAIKKLEESYIDLKEL (disulfide 2-12) [IBP-L-EK1]”, the pIC50 (SARS-CoV-2 PsV) was 6.09.
